Assay results reported in patent US20240092835A1, “NOVEL PEPTIDES CAPABLE OF ALTERING NK CELL ACTIVITY” (Massachusetts Institute of Technology, priority 2022, published 2024).
Where no end group is shown, it is not given here.

Experiments:
NKG2A−/NKG2C+ NK cells = test: NK cell activation markers in NKG2A-/NKG2C+ NK cells incubated with peptide and K562 expressing HLA-E (activation); assay type: cell-based, human; conditions: NKG2A-/NKG2C+ NK cells, K562/HLA-E, Trial 6
Procedure, shortened: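 Percent-positive cells for NK activation surface markers were measured after NK cells met peptide-treated K562 cells expressing HLA-E. A decrease in that fraction was scored as inhibition and an increase as activation; NKG2A−/NKG2C− cells served as controls.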

CD94/NKG2A = CD94/NKG2A (Homo sapiens, UniProt P26715+Q13241); test: Steady-state surface plasmon resonance of peptide-HLA-E complex with CD94/NKG2A; assay type: binding; conditions: for Binding of peptide-HLA-E complexes to CD94/NKG2A normalized to a theoretical Rmax: steady-state SPR
Chain of CD94/NKG2A (P26715 94-233 limits assumed): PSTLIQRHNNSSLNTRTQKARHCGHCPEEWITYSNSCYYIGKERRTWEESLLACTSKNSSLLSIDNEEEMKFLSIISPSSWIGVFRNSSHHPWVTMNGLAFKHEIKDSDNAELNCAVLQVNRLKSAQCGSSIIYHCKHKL
Chain of CD94/NKG2A (Q13241 32-179 limits assumed): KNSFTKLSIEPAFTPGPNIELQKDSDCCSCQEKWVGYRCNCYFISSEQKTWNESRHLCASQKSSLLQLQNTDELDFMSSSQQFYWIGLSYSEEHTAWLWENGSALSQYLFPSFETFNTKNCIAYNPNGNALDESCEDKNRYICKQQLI

CD94/NKG2C = CD94/NKG2C (Homo sapiens, UniProt P26717+Q13241); test: Steady-state surface plasmon resonance of peptide-HLA-E complex with CD94/NKG2C; assay type: binding; conditions: for Binding of peptide-HLA-E complexes to CD94/NKG2C normalized to a theoretical Rmax: steady-state SPR
Chain of CD94/NKG2C (P26717 94-231 limits assumed): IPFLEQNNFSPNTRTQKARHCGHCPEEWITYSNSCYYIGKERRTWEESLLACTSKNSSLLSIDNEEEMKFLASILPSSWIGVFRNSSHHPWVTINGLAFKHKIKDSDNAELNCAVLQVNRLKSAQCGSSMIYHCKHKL
Chain of CD94/NKG2C (Q13241 32-179 limits assumed): as the sequence (Q13241 32-179 limits assumed) above

TGPWRSLWI [human3, TGPWRSLWI]
percentage of CD107+ NK cells (NKG2A−/NKG2C+ NK cells): 39.5% | percentage of IFNG+ NK cells (NKG2A−/NKG2C+ NK cells): 23.3% | percentage of TNF+ NK cells (NKG2A−/NKG2C+ NK cells): 15.8% | binding of peptide-HLA-E complex to CD94/NKG2A normalized to a fitted Rmax (CD94/NKG2A; CD94/NKG2A concentration 0 μM): 0.013 | binding of peptide-HLA-E complex to CD94/NKG2A normalized to a fitted Rmax (CD94/NKG2A; CD94/NKG2A concentration 0.1 μM): 0.015 | binding of peptide-HLA-E complex to CD94/NKG2A normalized to a fitted Rmax (CD94/NKG2A; CD94/NKG2A concentration 0.2 μM): 0.019 | binding of peptide-HLA-E complex to CD94/NKG2A normalized to a fitted Rmax (CD94/NKG2A; CD94/NKG2A concentration 0.4 μM): 0.030 | binding of peptide-HLA-E complex to CD94/NKG2A normalized to a fitted Rmax (CD94/NKG2A; CD94/NKG2A concentration 0.8 μM): 0.051 | binding of peptide-HLA-E complex to CD94/NKG2A normalized to a fitted Rmax (CD94/NKG2A; CD94/NKG2A concentration 1.6 μM): 0.086 | binding of peptide-HLA-E complex to CD94/NKG2A normalized to a fitted Rmax (CD94/NKG2A; CD94/NKG2A concentration 3.2 μM): 0.145 | binding of peptide-HLA-E complex to CD94/NKG2A normalized to a fitted Rmax (CD94/NKG2A; CD94/NKG2A concentration 6.4 μM): 0.231 | binding of peptide-HLA-E complex to CD94/NKG2A normalized to a fitted Rmax (CD94/NKG2A; CD94/NKG2A concentration 12.8 μM): 0.336 | binding of peptide-HLA-E complex to CD94/NKG2A normalized to a fitted Rmax (CD94/NKG2A; CD94/NKG2A concentration 25.6 μM): 0.472 | binding of peptide-HLA-E complex to CD94/NKG2A normalized to a fitted Rmax (CD94/NKG2A; CD94/NKG2A concentration 51.2 μM): 0.639 | binding of peptide-HLA-E complex to CD94/NKG2A normalized to a fitted Rmax (CD94/NKG2A; CD94/NKG2A concentration 102.4 μM): 0.827 | Binding of peptide-HLA-E complexes to CD94/NKG2A normalized to a theoretical Rmax (CD94/NKG2A; CD94/NKG2A analyte concentration 0.000 μM): 0.004 | Binding of peptide-HLA-E complexes to CD94/NKG2A normalized to a theoretical Rmax (CD94/NKG2A; CD94/NKG2A analyte concentration 0.100 μM): 0.005 | Binding of peptide-HLA-E complexes to CD94/NKG2A normalized to a theoretical Rmax (CD94/NKG2A; CD94/NKG2A analyte concentration 0.200 μM): 0.006 | Binding of peptide-HLA-E complexes to CD94/NKG2A normalized to a theoretical Rmax (CD94/NKG2A; CD94/NKG2A analyte concentration 0.400 μM): 0.009 | Binding of peptide-HLA-E complexes to CD94/NKG2A normalized to a theoretical Rmax (CD94/NKG2A; CD94/NKG2A analyte concentration 0.800 μM): 0.015 | Binding of peptide-HLA-E complexes to CD94/NKG2A normalized to a theoretical Rmax (CD94/NKG2A; CD94/NKG2A analyte concentration 1.600 μM): 0.026 | Binding of peptide-HLA-E complexes to CD94/NKG2A normalized to a theoretical Rmax (CD94/NKG2A; CD94/NKG2A analyte concentration 3.200 μM): 0.044 | Binding of peptide-HLA-E complexes to CD94/NKG2A normalized to a theoretical Rmax (CD94/NKG2A; CD94/NKG2A analyte concentration 6.400 μM): 0.070 | Binding of peptide-HLA-E complexes to CD94/NKG2A normalized to a theoretical Rmax (CD94/NKG2A; CD94/NKG2A analyte concentration 12.800 μM): 0.102 | Binding of peptide-HLA-E complexes to CD94/NKG2A normalized to a theoretical Rmax (CD94/NKG2A; CD94/NKG2A analyte concentration 25.600 μM): 0.143 | Binding of peptide-HLA-E complexes to CD94/NKG2A normalized to a theoretical Rmax (CD94/NKG2A; CD94/NKG2A analyte concentration 51.200 μM): 0.194 | Binding of peptide-HLA-E complexes to CD94/NKG2A normalized to a theoretical Rmax (CD94/NKG2A; CD94/NKG2A analyte concentration 102.400 μM): 0.250 | binding of peptide-HLA-E complex to CD94/NKG2C normalized to a fitted Rmax (CD94/NKG2C; CD94/NKG2C concentration 0 μM): 0.006 | binding of peptide-HLA-E complex to CD94/NKG2C normalized to a fitted Rmax (CD94/NKG2C; CD94/NKG2C concentration 0.1 μM): 0.008 | binding of peptide-HLA-E complex to CD94/NKG2C normalized to a fitted Rmax (CD94/NKG2C; CD94/NKG2C concentration 0.2 μM): 0.007 | binding of peptide-HLA-E complex to CD94/NKG2C normalized to a fitted Rmax (CD94/NKG2C; CD94/NKG2C concentration 0.4 μM): 0.011 | binding of peptide-HLA-E complex to CD94/NKG2C normalized to a fitted Rmax (CD94/NKG2C; CD94/NKG2C concentration 0.8 μM): 0.016 | binding of peptide-HLA-E complex to CD94/NKG2C normalized to a fitted Rmax (CD94/NKG2C; CD94/NKG2C concentration 1.6 μM): 0.026 | binding of peptide-HLA-E complex to CD94/NKG2C normalized to a fitted Rmax (CD94/NKG2C; CD94/NKG2C concentration 3.2 μM): 0.044 | binding of peptide-HLA-E complex to CD94/NKG2C normalized to a fitted Rmax (CD94/NKG2C; CD94/NKG2C concentration 6.4 μM): 0.078 | binding of peptide-HLA-E complex to CD94/NKG2C normalized to a fitted Rmax (CD94/NKG2C; CD94/NKG2C concentration 12.8 μM): 0.130 | binding of peptide-HLA-E complex to CD94/NKG2C normalized to a fitted Rmax (CD94/NKG2C; CD94/NKG2C concentration 25.6 μM): 0.219 | binding of peptide-HLA-E complex to CD94/NKG2C normalized to a fitted Rmax (CD94/NKG2C; CD94/NKG2C concentration 51.2 μM): 0.353 | binding of peptide-HLA-E complex to CD94/NKG2C normalized to a fitted Rmax (CD94/NKG2C; CD94/NKG2C concentration 102.4 μM): 0.537 | Binding of peptide-HLA-E complexes to CD94/NKG2C normalized to a theoretical Rmax (CD94/NKG2C; CD94/NKG2C analyte concentration 0 μM): 0.002 | Binding of peptide-HLA-E complexes to CD94/NKG2C normalized to a theoretical Rmax (CD94/NKG2C; CD94/NKG2C analyte concentration 0.1 μM): 0.003 | Binding of peptide-HLA-E complexes to CD94/NKG2C normalized to a theoretical Rmax (CD94/NKG2C; CD94/NKG2C analyte concentration 0.2 μM): 0.003 | Binding of peptide-HLA-E complexes to CD94/NKG2C normalized to a theoretical Rmax (CD94/NKG2C; CD94/NKG2C analyte concentration 0.4 μM): 0.004 | Binding of peptide-HLA-E complexes to CD94/NKG2C normalized to a theoretical Rmax (CD94/NKG2C; CD94/NKG2C analyte concentration 0.8 μM): 0.006 | Binding of peptide-HLA-E complexes to CD94/NKG2C normalized to a theoretical Rmax (CD94/NKG2C; CD94/NKG2C analyte concentration 1.6 μM): 0.010 | Binding of peptide-HLA-E complexes to CD94/NKG2C normalized to a theoretical Rmax (CD94/NKG2C; CD94/NKG2C analyte concentration 3.2 μM): 0.017 | Binding of peptide-HLA-E complexes to CD94/NKG2C normalized to a theoretical Rmax (CD94/NKG2C; CD94/NKG2C analyte concentration 6.4 μM): 0.030 | Binding of peptide-HLA-E complexes to CD94/NKG2C normalized to a theoretical Rmax (CD94/NKG2C; CD94/NKG2C analyte concentration 12.8 μM): 0.050 | Binding of peptide-HLA-E complexes to CD94/NKG2C normalized to a theoretical Rmax (CD94/NKG2C; CD94/NKG2C analyte concentration 25.6 μM): 0.084 | Binding of peptide-HLA-E complexes to CD94/NKG2C normalized to a theoretical Rmax (CD94/NKG2C; CD94/NKG2C analyte concentration 51.2 μM): 0.135 | Binding of peptide-HLA-E complexes to CD94/NKG2C normalized to a theoretical Rmax (CD94/NKG2C; CD94/NKG2C analyte concentration 102.4 μM): 0.205
